Measurements reported in US20110039762A1, “TARGETED ANTIMICROBIAL MOIETIES” (C3 JIAN, INC., priority 2009, published 2011).
“Also recorded” adds a separate entry of the source.

Key:
[1] = tested on: microorganisms (e.g., bacteria, yeasts, fungi); test: Targeting peptide binding to target microorganisms (Table 3); settings: preferably 1x PBS; for Target(s) (microorganisms bound by the targeting peptide): peptide binding in aqueous buffers varied by peptide solubility
MRSA = test: Kill or inhibit growth/proliferation; morphology, biofilm and growth disruption (Tables 5, 6); type: cell-based, Methicillin-resistant Staphylococcus aureus; design: key: A: Peptide aggregates; B: Less hyphal formation; Clumps; Diffuse clumps and small polyps; F: Diffuse growth; H: Thin; I: Growth inhibition; Microcolony formation; Rippled; Small polyps; Thick; W: Halo formation on top, microlonies on bottom; note: test concentration or dose not given here
microorganisms = test: Peptides having multiple activities (targeting/binding, antimicrobial, growth or phenotype altering)
Description: In certain embodiments, peptides described herein can have multiple activities. Thus for example, a peptide can have both binding/targeting activity and antimicrobial activity. Such peptides can be used, e.g., in a chimeric construct, for any or all of these properties. Thus, for example, a peptide designated “B” in Table 8 can be used as a targeting peptide. If it is also designated G or M it can also be used for antimicrobial activity.

S. pneumoniae = test: Kill or inhibit growth/proliferation; morphology, biofilm and growth disruption (Tables 5, 6); type: cell-based, Streptococcus pneumoniae; design: key: A: Peptide aggregates; B: Less hyphal formation; Clumps; Diffuse clumps and small polyps; F: Diffuse growth; H: Thin; I: Growth inhibition; Microcolony formation; Rippled; Small polyps; Thick; W: Halo formation on top, microlonies on bottom; note: test concentration or dose not given here
[2] = microorganism the targeting peptide binds, binding in aqueous buffers varied by peptide solubility
[3] = microorganism(s) the targeting peptide binds, binding in aqueous buffers depending on peptide solubility
[4] = microorganism(s) the targeting peptide binds, peptide binding conducted in aqueous buffers varied by peptide solubility

Row | Substance | Target(s) [1, 2] | Organism, effect (MRSA) | Activities (microorganisms) | Target(s) (microorganisms bound by the targeting peptide) [1] | other results
1 | PF-015: peptide having multiple activities (chain 1 SIDKRNLYNLKYYE; chain 2 SIDKRNLYNLKYYE; Peptide with targeting and/or antimicrobial activity) | E. faecalis; also recorded: C. jeikeium | MRSA (W) | G B |  | 
2 | PF-017: peptide having multiple activities (chain 1 ESIIE; chain 2 ESIIE; Peptide with targeting and/or antimicrobial activity) | E. coli | MRSA (M) | G B |  | 
3 | PF-019 (NDTNK; Peptide with targeting and/or antimicrobial activity) |  | MRSA (M) |  |  | 
4 | PF-026: peptide having multiple activities (chain 1 SIHFIN; chain 2 SIHFIN; Peptide with targeting and/or antimicrobial activity) | S. epidermidis and M. luteus and P. mirabilis and C. albicans and MRSA and E. faecalis and C. jeikeium | MRSA (M) | G B |  | 
5 | PF-029: peptide having multiple activities (chain 1 NSTNE; chain 2 NSTNE; Peptide with targeting and/or antimicrobial activity) | S. epidermidis; also recorded: M. luteus; also recorded: C. albicans; also recorded: C. jejuni | MRSA (M) | G B |  | 
6 | PF-031: peptide having multiple activities (chain 1 MPHHSTTSSRIVVPAHQSNMASTPNLSITP; chain 2 MPHHSTTSSRIVVPAHQSNMASTPNLSITP; Peptide with targeting and/or antimicrobial activity) | M. luteus; also recorded: C. albicans | MRSA (M) | G B |  | 
7 | PF-035: peptide having multiple activities (chain 1 SFYESY; chain 2 SFYESY; Peptide with targeting and/or antimicrobial activity) | S. epidermidis and M. luteus and E. coli and C. albicans and MRSA and C. jeikeium and C. jejuni | MRSA (M) | G B |  | 
8 | PF-045: peptide having multiple activities (chain 1 LDINDYRSTY; chain 2 LDINDYRSTY; Peptide with targeting and/or antimicrobial activity) | S. epidermidis; also recorded: E. coli; also recorded: E. faecalis; also recorded: C. jejuni | MRSA (S) | G B |  | 
9 | PF-049: peptide having multiple activities (chain 1 AYYLKRREEKGK; chain 2 AYYLKRREEKGK; Peptide with targeting and/or antimicrobial activity) | S. epidermidis and MRSA and C. jeikeium and C. jejuni | MRSA (S) | G B |  | 
10 | PF-058: peptide having multiple activities (chain 1 FADQSQDNA; chain 2 FADQSQDNA; Peptide with targeting and/or antimicrobial activity) | S. epidermidis and M. luteus and E. coli and C. albicans and MRSA and C. jeikeium and C. jejuni | MRSA (M) | G B |  | 
11 | PF-149: peptide having multiple activities (GKVSVLTRVPRSLGGAPANQ; Peptide with targeting and/or antimicrobial activity) |  | MRSA (H) | G B |  | Target(s) [1, 3]: S. epidermidis and M. luteus and E. coli and MRSA and C. jeikeium
12 | PF-156: peptide having multiple activities (LITAEQPATAPIAGK; Peptide with targeting and/or antimicrobial activity) |  | MRSA (H) | G B |  | Target(s) [1, 3]: S. epidermidis; also recorded: C. jeikeium
13 | PF-354: peptide having multiple activities (chain 1 FTFSKCRASNGRGFGTLWL; chain 2 FTFSKCRASNGRGFGTLWL; Peptide with targeting and/or antimicrobial activity) |  | MRSA (H) | G B |  | 
14 | PF-382: peptide having multiple activities (chain 1 KYKCSWCKRVYTLRKDHKTAR; chain 2 KYKCSWCKRVYTLRKDHKTAR; Peptide with targeting and/or antimicrobial activity) |  | MRSA (M) | G B |  | Target(s) [1, 3]: S. epidermidis; also recorded: B. subtilis; also recorded: B. fragilis; also recorded: E. coli; also recorded: P. aeruginosa; also recorded: E. faecalis; also recorded: C. jeikeium; also recorded: C. jejuni
15 | PF-405: peptide having multiple activities (LVRIEVDDLEEWYERNFI; Peptide with targeting and/or antimicrobial activity) |  | MRSA (M) | G B |  | Target(s) [1, 4]: S. epidermidis; also recorded: E. coli; also recorded: E. faecalis
16 | PF-551: peptide having multiple activities (chain 1 QVKEKRREIELQFRDAEKKLEASVQAE; chain 2 QVKEKRREIELQFRDAEKKLEASVQAE; Peptide with targeting and/or antimicrobial activity) |  | MRSA (C) | G B |  | Target(s) [1, 4]: S. pneumoniae
17 | PF-626: peptide having multiple activities (KYDFDDFEPEEA; Peptide with targeting and/or antimicrobial activity) |  |  | G B | S. epidermidis and M. luteus and E. coli and C. albicans and MRSA and S. pneumoniae and E. faecalis and C. jeikeium | Organism, effect (S. pneumoniae): S. pneumoniae (H)
18 | PF-630: peptide having multiple activities (chain 1 IPATPIIHS; chain 2 IPATPIIHS; Peptide with targeting and/or antimicrobial activity) |  | MRSA (M) | G B |  | 
19 | PF-656 (chain 1 RGMFVPFHDVDCVQ; chain 2 RGMFVPFHDVDCVQ; Peptide with targeting and/or antimicrobial activity) |  |  |  | Mycobacteria spp | Organism, effect (morphology, biofilm and growth disruption) (MRSA): MRSA (R)
20 | PF-661 (chain 1 PDEDIRRRAILPPAGPCRPMSPE; chain 2 PDEDIRRRAILPPAGPCRPMSPE; Peptide with targeting and/or antimicrobial activity) |  |  |  | Mycobacteria spp | Organism, effect (morphology, biofilm and growth disruption) (MRSA): MRSA (R)
21 | PF-680 (chain 1 ADPHPTTGI; chain 2 ADPHPTTGI; Peptide with targeting and/or antimicrobial activity) |  |  |  | Mycobacteria spp | Organism, effect (morphology, biofilm and growth disruption) (MRSA): MRSA (R)
22 | PF-692 (chain 1 GVAREDPLEPDPLAPIIDDSR; chain 2 GVAREDPLEPDPLAPIIDDSR; Peptide with targeting and/or antimicrobial activity) |  |  |  | Mycobacteria spp | Organism, effect (morphology, biofilm and growth disruption) (MRSA): MRSA (R)
23 | PF-737: peptide having multiple activities (KSSGSSASASSTAGGSSSK; Peptide with targeting and/or antimicrobial activity) |  |  | G B | S. epidermidis; also recorded: S. pneumoniae | Organism, effect (morphology, biofilm and growth disruption) (S. pneumoniae): S. pneumoniae (D)
24 | PF-744: peptide having multiple activities (LGVGTFVGKVLIKNQQKQKSKKKAQ; Peptide with targeting and/or antimicrobial activity) |  |  | G B | S. epidermidis and M. luteus and E. coli and MRSA and S. pneumoniae and E. faecalis and C. jeikeium | Organism, effect (morphology, biofilm and growth disruption) (S. pneumoniae): S. pneumoniae (H)
25 | PF-756: peptide having multiple activities (DALLRLA; Peptide with targeting and/or antimicrobial activity) |  |  | G B | S. epidermidis and M. luteus and C. albicans and MRSA and C. jeikeium | Organism, effect (morphology, biofilm and growth disruption) (S. pneumoniae): S. pneumoniae (A)
26 | PF-757: peptide having multiple activities (PQAISSVQQNA; Peptide with targeting and/or antimicrobial activity) |  |  | G B | M. luteus and C. albicans and MRSA | Organism, effect (morphology, biofilm and growth disruption) (S. pneumoniae): S. pneumoniae (H)
27 | PF-762: peptide having multiple activities (PAPAPSAPAPAPEQPEQPA; Peptide with targeting and/or antimicrobial activity) |  |  | G B | M. luteus; also recorded: C. albicans | Organism, effect (morphology, biofilm and growth disruption) (S. pneumoniae): S. pneumoniae (H)
